Reference: patent publication US20260217709A1, “2-OXOQUINAZOLINE DERIVATIVES AS METHIONINE ADENOSYLTRANSFERASE 2A INHIBITORS” (IDEAYA BIOSCIENCES, INC., priority 2018, published 2026)

Tests used:
hMAT2A [1] = target: T1, hMAT2A (Homo sapiens, UniProt P31153); assay: Phosphate Sensor Fluorescence Assay (MAT2A enzyme inhibition); format: biochemical; parameters: Human MAT2A: Cepter, amino acids 1-395; purchased Cepter clone ID 329, lot 00023-123; clone ID 334, lot 00023-148; details: L-methionine 500 uM, ATP 500 uM, 1 hour room temperature
T1 sequence (P31153 whole entry, the tested form may be a part): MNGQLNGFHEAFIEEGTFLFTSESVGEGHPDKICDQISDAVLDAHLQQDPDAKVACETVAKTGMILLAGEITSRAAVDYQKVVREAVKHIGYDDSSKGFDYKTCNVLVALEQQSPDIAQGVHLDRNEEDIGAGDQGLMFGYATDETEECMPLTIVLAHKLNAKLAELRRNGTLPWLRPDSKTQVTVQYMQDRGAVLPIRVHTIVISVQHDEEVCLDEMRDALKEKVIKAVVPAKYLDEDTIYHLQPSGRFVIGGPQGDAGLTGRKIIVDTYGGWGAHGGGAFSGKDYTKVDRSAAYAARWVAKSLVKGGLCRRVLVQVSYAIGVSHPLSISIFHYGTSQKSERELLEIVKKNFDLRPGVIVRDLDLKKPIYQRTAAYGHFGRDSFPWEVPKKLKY
Experimental: (§1) The ability of the compound of present disclosure to inhibit MAT2A enzyme was determined using the Malachite Green or Phosphate Sensor Fluorescence Assay described below.
B. Phosphate Sensor Fluorescence Assay
MAT2A enzyme is incubated with a test compound in DMSO or DMSO and its substrates (L-methionine and ATP) in a microtiter plate. The enzymatic reaction is stopped by the addition of Working Phosphate Sensor Mixture. The plate is analyzed for fluorescence at 450 nm.
Test compounds or DMSO were added to the appropriate well suing D300e digital dispenser. 5 μl/well of Assay Buffer was added to the wells corresponding to the negative control and 5 μl/well of MAT2A was added to all the wells except for those corresponding to the negative control. After incubating the plate at room temperature for 15 minutes, 5 μl/well of the 1 mM L-methionine/1 mM ATP mixture was added to all wells. The plate was centrifuged at 1000 rpm for 1 minute and then incubated at room temperature for 1 hour. 5 μl of the Working Phosphate Sensor Mixture was added to all wells and the plate was centrifuged at 1000 rpm for 1 minute. The plate was read for fluorescence at 450 nm after exciting at 430 nm.
Percent inhibition was calculated in Chemical and Biological Information System (CBIS), (ChemInnovation Software Inc.). […]

hMAT2A [2] = target: T1, hMAT2A; assay: Malachite Green Assay (MAT2A enzyme inhibition); format: biochemical; parameters: amino acids 1-395; purchased Cepter; details: hMAT2A 50 nM, substrates 500 uM each, reaction time 1 hour, 23° C.
Experimental: as §1
L-methionine Substrate: Alfa Aesar catalog #J61904
ATP Substrate: Alfa Aesar cat #J60336
Malachite Green Detection Reagent: Millipore Sigma catalog #MAK307-1KT
Assay buffer: 50 mM Tris, pH 7.5/50 mM KCl/10 mM MgCl2/0.01% Brij-35/1 mM DTT/0.1% BGG
The plate was centrifuged at 1000 rpm for 1 minute and then incubated at room temperature for 1 hour. 5 μL of malachite green detection reagent was added to all the test wells and the plate was centrifuged at 1000 rpm for 1 minute and then incubated at room temperature for 30 minutes. The plate was read for absorbance at 620 nm on a plate reader (e.g., Infinite M1000).

## 1[2-(difluoromethoxy)(3-pyridyl)]-7- cyclopropyl-4-[(cyclopropylmethyl)- amino]hydroquinazolin-2-one [Example 416]
hMAT2A [1]; class symbols
  IC50: < 0.2 µM

## 7-chloro-1-(2-fluoro-3- metho xyphenyl)-4- hydroxyhydroquinazolin-2-one [Example 332]
hMAT2A [1]; numeric bound
  IC50: > 10 µM

## Nc1nc(=O)n(-c2ccccc2)c2cc(Cl)ccc12 [Example 59, 4-amino-7-chloro-1-phenylquinazolin-2(1H)-one]
hMAT2A [2]
  IC50: 1 to 10 µM
